# Experimental data: patent US20100168054A1, “Functionalized Beta 1,6 Glucosamine Disaccharides and Process for Their Preparation” (OM PHARMA, priority 2006, published 2010)
# Values joined by “and” are separate entries in the source; they are usually repeats but may differ in a detail not shown here. Equal values may be shown once. Marks after values point to notes of the source that are not given here.
# Experiments:
# Format in all cases: in vivo, BALB/c ByJ mice
# [1] = tested on: LACK-sensitized and challenged mice; experiment: LACK-induced asthma model: pulmonary cytokines
# Experimental: (§1) An example in vivo of the biological activity of two representative compounds of the invention is presented here. Using a mouse model of allergic asthma previously published (described in Julia et al. Immunity. 2002 February; 16(2):271-83), we aimed to investigate whether i.p. administrations of the synthetic molecules OM-174-DP and OM-174-MP-PD would inhibit airway inflammation in LACK-sensitized and challenged mice. To this goal, mice were treated either all along asthma induction (prophylactic model) or therapeutically (i.e. three times after animals have been sensitized to the allergen, the protein LACK). As read-outs, eosinophils were enumerated in bronchoalveolar lavages (BAL), and the well known markers of allergic asthma, namely the Th2 cytokines IL-4, IL-5, and IL-13 were quantified from the lungs. Moreover the level of plasmatic IgE was also reported.
# (§2) OM-174-DP (i.p.)-treated LACK-sensitized and challenged mice (6 mice) Treatment and Schedule with Test or Control Article Experiment started at day 0. On days 0, 2, 3, 4, 7, 9, 10 11, and 12, mice of groups C, and D were treated i.p. with synthetic OM-174-DP (compound 1b) and OM-174-MP-PD (compound 19) respectively at the dose of 1 mg/Kg (20 μg per mouse). Mice of groups E were treated therapeutically i.p. on days 15, 17 and 19 at the dose of 1 mg/Kg (20 μg per mouse).
# (§3) On day 1 and day 8, mice were sensitized i.p. with LACK/Alum. From day 16 to day 20, all the groups except group A mice were challenged with aerosols of a solution of LACK (0.15%). Group A received a saline solution (NaCl 0.9%) (group A) for 40 minutes instead.
# To analyze pulmonary cytokine contents, lungs were harvested and left lungs were used to prepare protein extracts. 400 μl were recovered for each left lung. Cytokines (IL-4 and IL-13 in a first series of analyses, and then IL-5 and IFN-γ) were measured by multiplex analysis using FACSArray. The results, normalized for the protein content, are presented in pg/ml.
# [2] = tested on: LACK-sensitized and challenged mice; experiment: LACK-induced asthma model: LACK-specific IgE in sera; conditions: therapeutic
# Experimental: as §1, §2, §3
# To analyze specific IgE contents, mice of groups A, B, and G were bled by heart puncture two days after the last aerosol, and sera were prepared. LACK-specific IgE were measured by ELISA.
# [3] = tested on: LACK-sensitized and challenged mice; experiment: LACK-induced asthma model: eosinophils in bronchoalveolar lavages; conditions: for Eosino × 10^6, Mean ± SEM / Eosino × 10^6, individual mice: BAL; for Eosino × 10^6, individual mice: 1 mg/kg
# Experimental: as §1, §2, §3
# For all the animals, Broncho-alveolar lavages (BAL) were performed. Two days after the last aerosol challenge, mice were bled and a canula was inserted into their trachea. Lungs were washed 3 times with 1 ml of warmed PBS. Cells were washed with PBS, and red blood cells were lysed using a red blood cell lysis buffer. Cells were further washed in PBS and counted. For differential BAL cell counts, cytospin preparations were made and stained with Wright/Giemsa. At least 400 cells were scored for each slide, and the numbers of lymphocytes, neutrophils, eosinophils, and macrophages/DC/pneumocytes (scored as other mononuclear cells) were determined by microscopic examination. Only eosinophilia is reported here.
# [4] = prophylactic, i.p. 1 mg/Kg, 1 mg/kg
# [5] = therapeutic, i.p. 1 mg/Kg on days 15, 17, 19
# [6] = therapeutic, i.p. 1 mg/Kg on days 15, 17, 19, 1 mg/kg
# [7] = prophylactic, i.p. 1 mg/Kg on days 0, 2, 3, 4, 7, 9, 10, 11, 12
SMILES,fold decrease of IL-4 in lungs compared to group B ([1]; prophylactic),fold reduction of IL-13 compared to asthmatic mice ([1]; prophylactic),"Mean IL13 ([1]; prophylactic, i.p. 1 mg/Kg)","Mean IL-4 ([1]; prophylactic, i.p. 1 mg/Kg)","IL13 in lungs, individual mice [1, 4]","IL-4 in lungs, individual mice [1, 4]","Eosino × 10^6, Mean ± SEM [3, 7]","Eosino × 10^6, individual mice [3, 7]",times less BAL eosinophilia compared to positive asthmatic group (B) ([3]; prophylactic),also measured
"CCCCCCCCCCCC(=O)O[C@H](CCCCCCCCCCC)CC(=O)NC1C(OCC2OC(OP(=O)(O)O)C(NC(=O)C[C@H](O)CCCCCCCCCCC)C(O)C2O)OC(CO)C(OP(=O)(O)O)C1O (stereo partly drawn) [compound 1b, 2-Deoxy-6-O-[2-deoxy-4-O-(dihydroxyphosphoryl)-2-[(R)-3-dodecanoyloxytetradecanoylamino]-β-D-glucopyranosyl]-2-[(R)-3-hydroxytetradecanoylamino]-α-D-glucopyranosyl dihydrogenophosphate]",6 fold,4 fold,13.40* pg/ml,1.50** pg/ml,8.39 pg/mL and 25.39 pg/mL and 8.2 pg/mL and 24.29 pg/mL and 12.52 pg/mL and 1.59 pg/mL,1.1 pg/mL and 3.33 pg/mL and 0.71 pg/mL and 2.43 pg/mL and 1.23 pg/mL and 0.17 pg/mL,109781 ± 139453 × 10^6,75359 × 10^6 and 385612 × 10^6 and 33412 × 10^6 and 54158 × 10^6 and 105352 × 10^6 and 4792 × 10^6,about 8 times,"fold reduction in IL-4 compared to group B ([1]; therapeutic): 4 fold; fold reduction in IL-13 compared to group B ([1]; therapeutic): 3 fold; fold reduction of IL-5 compared to untreated mice ([1]; therapeutic): 2.8 fold; reduction of IFN-γ levels compared to group B (in words) ([1]; therapeutic): reduced twofold; Mean IFN-γ [1, 5]: 1.38* pg/ml; Mean IL13 [1, 5]: 17.90* pg/ml; Mean IL-4 [1, 5]: 2.33** pg/ml; Mean IL-5 [1, 5]: 6.00** pg/ml; IFN-γ in lungs, individual mice [1, 6]: 1.62 pg/mL and 0.88 pg/mL and 0.94 pg/mL and 2.2 pg/mL and 0.81 pg/mL and 1.8 pg/mL; IL13 in lungs, individual mice [1, 6]: 20.35 pg/mL and 5.43 pg/mL and 9.93 pg/mL and 23.68 pg/mL and 21.99 pg/mL and 26.02 pg/mL; IL-4 in lungs, individual mice [1, 6]: 2.5 pg/ml and 1 pg/ml and 1.58 pg/ml and 3.48 pg/ml (2×) and 1.94 pg/ml; IL-5 in lungs, individual mice [1, 6]: 7.41 pg/mL and 1.06 pg/mL and 2.15 pg/mL and 9.23 pg/mL and 5.81 pg/mL and 10.33 pg/mL; Mean IgE ([2]; sera, i.p. 1 mg/Kg on days 15, 17, 19): 224.56* ng/ml; LACK-specific IgE, individual mice ([2]; sera, i.p. 1 mg/Kg on days 15, 17, 19, 1 mg/kg): 188 ng/mL and 159 ng/mL and 94 ng/mL and 382 ng/mL and 395 ng/mL and 129 ng/mL; fold less LACK-specific IgE compared to untreated LACK challenged mice [2]: 2.6 fold; Eosino × 10^6, Mean ± SEM [3, 5]: 13923 ± 7362 × 10^6; Eosino × 10^6, individual mice [3, 5]: 16744 × 10^6 and 3802 × 10^6 and 7411 × 10^6 and 21739 × 10^6 and 12500 × 10^6 and 21343 × 10^6; factor of decrease of eosinophil count compared to group B ([3]; therapeutic, three times): 64"
"CCCCCCCCCCCC(=O)O[C@H](CCCCCCCCCCC)CC(=O)N[C@H]1[C@H](OC[C@H]2O[C@H](OCC(O)CO)[C@H](NC(=O)C[C@H](O)CCCCCCCCCCC)[C@@H](O)[C@@H]2O)O[C@H](CO)[C@@H](OP(=O)(O)O)[C@@H]1O (stereo partly drawn) [compound 19, 2,3-Dihydroxypropyl-2-Deoxy-6-O-[2-deoxy-4-O-(dihydroxyphosphoryl)-2-[(R)-3-dodecanoyloxytetradecanoylamino]-β-D-glucopyranosyl]-2-[(R)-3-hydroxytetradecanoylamino]-α-D-glucopyranoside]",4 fold,3 fold,16.62* pg/ml,2.09** pg/ml,12.08 pg/mL and 17.1 pg/mL and 8.59 pg/mL and 30.6 pg/mL and 16.14 pg/mL and 15.21 pg/mL,1.01 pg/mL and 1.47 pg/mL and 0.91 pg/mL and 5.68 pg/mL and 1.79 pg/mL and 1.66 pg/mL,100411 ± 80738 × 10^6,33286 × 10^6 and 64010 × 10^6 and 47018 × 10^6 and 252294 × 10^6 and 82555 × 10^6 and 123305 × 10^6,about 8 times,–
